The source of these data is patent publication US8354545B2, “3,4-substituted pyrrolidine beta-secretase inhibitors for the treatment of alzheimer's disease” (Merck, Sharp & Dohme, Corp., priority 2007, dated 2013).

The target of the test is T1, BACE 1 (Homo sapiens, UniProt P56817).
T1 construct: soluble (transmembrane domain and cytoplasmic extension excluded) human protein; made in house; host or cells: baculovirus expression system (insect cells implied)
T1 sequence (P56817 46-457 limits assumed): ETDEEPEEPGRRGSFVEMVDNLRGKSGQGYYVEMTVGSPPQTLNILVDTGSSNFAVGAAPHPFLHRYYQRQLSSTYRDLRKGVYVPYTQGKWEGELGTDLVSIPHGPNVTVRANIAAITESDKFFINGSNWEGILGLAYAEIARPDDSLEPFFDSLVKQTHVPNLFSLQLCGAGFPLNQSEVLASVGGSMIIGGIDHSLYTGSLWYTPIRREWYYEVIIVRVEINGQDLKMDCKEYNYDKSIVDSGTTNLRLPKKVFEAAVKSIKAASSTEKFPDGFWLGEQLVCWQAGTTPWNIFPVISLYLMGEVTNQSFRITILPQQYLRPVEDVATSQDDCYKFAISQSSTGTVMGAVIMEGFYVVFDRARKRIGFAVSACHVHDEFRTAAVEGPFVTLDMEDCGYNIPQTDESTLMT
Nature of the test: ECL Assay: homogeneous end point electrochemiluminescence assay with biotinylated BACE substrate. It is filed as biochemical. The note with it: soluble human enzyme, pH 6.5. How it is done: Enzyme inhibition is determined as follows.
ECL Assay: A homogeneous end point electrochemiluminescence (ECL) assay is performed using a biotinylated BACE substrate. […] A typical reaction contains approximately 0.6 nM enzyme, 0.25 μM of the substrate, and buffer (50 mM Pipes, pH 6.5, 0.1 mg/ml BSA, 0.2% CHAPS, 15 mM EDTA and 1 mM deferoxamine) in a total reaction volume of 100 μl. […] To measure the inhibitory potency for compounds, 10 concentrations of inhibitors are prepared starting from 200 μM with three fold series dilution. Solutions of the inhibitor in DMSO are included in the reaction mixture (final DMSO concentration is 10%). All experiments are conducted at […] using the standard reaction conditions described above. To determine the IC50 of the compound, a four parameter equation is used for curve fitting.
The term IC50 denotes the point on the concentration scale where inhibition reaches its midpoint. Regarding `O=C([C@@H]1CNC[C@H]1c1ccccc1Br)N1CCCC1Cc1ccccc1` (stereo partly drawn) [Example 8, 2-benzyl-1-{[(3S,4R)-4-(2-bromophenyl)pyrrolidin-3-yl]carbonyl}pyrrolidine], the IC50 worked out at 67 µM.

As to `CCOc1ccc(-c2ccccc2[C@@H]2CNC[C@H]2C(=O)N2CCOC[C@@H]2c2ccccc2)cc1` [Example 12], the half-inhibitory concentration (IC50) was 18 µM.

Turning to `O=C([C@@H]1CNC[C@H]1c1ccccc1Br)N1CCC2(C=Cc3ccccc32)CC1` [Example 38, 1-{[(3S,4R)-4-(2-bromophenyl)pyrrolidin-3-yl]carbonyl}spiro[indene-1,4′-piperidine]], the IC50 is 19 µM.

As to `CS(=O)(=O)c1ccc(-c2ccccc2[C@@H]2CNC[C@H]2C(=O)N2CCC3(C=Cc4ccccc43)CC2)cc1` [Example 64], the IC50 turned out to be 3 µM.

Molecule `CS(=O)(=O)c1ccc(-c2ccccc2[C@@H]2CNC[C@H]2C(=O)N2CCC(c3ccccc3)CC2c2ccccc2)cc1` (stereo partly drawn) [Example 76, 1-({(3S,4R)-4-[4′-(methylsulfonyl)biphenyl-2-yl]pyrrolidin-3-yl}carbonyl)-2,4-diphenylpiperidine] yielded a concentration for half-maximal inhibition (IC50) of 3.5 µM.

For `O=C([C@@H]1CNC[C@H]1c1ccccc1Br)N1CCC2(C=Cc3ccccc32)CC1c1ccccc1` (stereo partly drawn) [Example 79, 1′-{[(3S,4R)-4-(2-bromophenyl)pyrrolidin-3-yl]carbonyl}-2′-phenylspiro[indene-1,4′-piperidine]], the IC50 turned out to be 1.8 µM.

For `CS(=O)(=O)c1ccc(-c2ccccc2[C@@H]2CNC[C@H]2C(=O)N2CCC3(C=Cc4ccccc43)CC2c2ccccc2)cc1` (stereo partly drawn) [Example 83, 1′-({(3S,4R)-4-(4′-(methylsulfonyl)biphenyl-2-yl]pyrrolidin-3-yl}carbonyl)-2′-phenylspiro-[indene-1,4′-piperidine]], half-maximal inhibition (IC50) was put at 0.38 µM.
